Measured values as given in ChEMBL document CHEMBL1909046, “DrugMatrix in vitro pharmacology data”.

Columns and labels:
[1] = DRUGMATRIX: Phosphodiesterase PDE4 enzyme inhibition (substrate: [3H]cAMP + cAMP); settings: u-937; Not Active = under 50% inhibition at 10 µM
[2] = DRUGMATRIX: Tumor Necrosis Factor (TNF), Non-Selective radioligand binding (ligand: [125I] TNF-alpha); assay type: cell membranes, Membrane; settings: u-937; Not Active = under 50% inhibition at 10 µM
[3] = target: Kappa-type opioid receptor (Homo sapiens, UniProt P41145); experiment: DRUGMATRIX: Opiate kappa (OP2, KOP) radioligand binding (ligand: [3H] Diprenorphine); assay type: cell membranes, HEK293, Membrane; settings: hek293; Not Active = under 50% inhibition at 10 µM
Chain of Kappa-type opioid receptor (P41145 whole entry): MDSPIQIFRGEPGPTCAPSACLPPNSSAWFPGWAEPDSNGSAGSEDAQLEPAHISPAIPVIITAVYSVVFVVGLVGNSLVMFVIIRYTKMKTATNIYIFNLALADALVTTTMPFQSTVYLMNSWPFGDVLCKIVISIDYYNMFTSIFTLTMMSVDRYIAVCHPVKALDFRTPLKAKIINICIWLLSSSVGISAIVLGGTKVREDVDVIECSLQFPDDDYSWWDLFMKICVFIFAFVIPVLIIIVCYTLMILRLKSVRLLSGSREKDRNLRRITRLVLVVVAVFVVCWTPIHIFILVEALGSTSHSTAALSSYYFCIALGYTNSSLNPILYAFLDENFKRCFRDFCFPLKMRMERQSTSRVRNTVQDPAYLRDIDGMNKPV

[4] = DRUGMATRIX: Purinergic P2X radioligand binding (ligand: [3H] alpha, beta-Methylene-ATP); assay type: cell membranes, Oryctolagus cuniculus, New Zealand albino, Urinary bladder, Membrane; settings: Not Active = under 50% inhibition at 10 µM
Cytochrome P450 2A6 = target: T1, Cytochrome P450 2A6 (Homo sapiens, UniProt P11509); settings: bti-tn-5b1-4; also: in other assays of this panel Not Active means under 50% inhibition at 10 µM
T1 sequence (P11509 whole entry): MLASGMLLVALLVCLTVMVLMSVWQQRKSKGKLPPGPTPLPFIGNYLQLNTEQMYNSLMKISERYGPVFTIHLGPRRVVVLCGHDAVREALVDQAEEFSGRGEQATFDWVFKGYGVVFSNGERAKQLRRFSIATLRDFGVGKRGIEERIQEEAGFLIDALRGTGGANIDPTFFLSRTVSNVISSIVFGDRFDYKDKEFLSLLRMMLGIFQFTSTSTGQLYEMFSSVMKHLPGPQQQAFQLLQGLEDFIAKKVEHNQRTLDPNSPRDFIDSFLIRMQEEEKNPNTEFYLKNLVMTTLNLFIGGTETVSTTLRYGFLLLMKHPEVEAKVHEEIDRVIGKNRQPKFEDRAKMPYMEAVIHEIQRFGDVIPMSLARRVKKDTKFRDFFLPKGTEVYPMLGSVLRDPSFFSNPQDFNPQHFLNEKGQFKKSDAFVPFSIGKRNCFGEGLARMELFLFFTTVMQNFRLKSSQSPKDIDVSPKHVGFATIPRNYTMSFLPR

Adenosine receptor A2a = Adenosine receptor A2a (Homo sapiens, UniProt P29274); experiment: DRUGMATRIX: Adenosine A2A radioligand binding (ligand: […]); assay type: cell membranes, HEK293, Membrane; settings: hek293; Not Active = under 50% inhibition at 10 µM
Chain of Adenosine receptor A2a (P29274 whole entry): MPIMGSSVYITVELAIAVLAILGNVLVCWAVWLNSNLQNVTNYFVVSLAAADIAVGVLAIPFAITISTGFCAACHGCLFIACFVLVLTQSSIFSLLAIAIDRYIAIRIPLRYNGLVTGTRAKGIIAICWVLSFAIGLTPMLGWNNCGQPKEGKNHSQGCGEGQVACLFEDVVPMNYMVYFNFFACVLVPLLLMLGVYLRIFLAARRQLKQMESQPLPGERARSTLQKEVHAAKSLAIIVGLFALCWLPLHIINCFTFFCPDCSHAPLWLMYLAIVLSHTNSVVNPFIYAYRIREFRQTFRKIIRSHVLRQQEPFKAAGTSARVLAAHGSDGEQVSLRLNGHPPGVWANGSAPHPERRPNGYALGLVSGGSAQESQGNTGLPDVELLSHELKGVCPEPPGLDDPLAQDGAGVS

Nitric oxide synthase 1 = Nitric oxide synthase 1 (Rattus norvegicus, UniProt P29476); assay type: tissue-based, Cerebellum; also: in other assays of this panel Not Active means under 50% inhibition at 10 µM
Chain of Nitric oxide synthase 1 (P29476 whole entry): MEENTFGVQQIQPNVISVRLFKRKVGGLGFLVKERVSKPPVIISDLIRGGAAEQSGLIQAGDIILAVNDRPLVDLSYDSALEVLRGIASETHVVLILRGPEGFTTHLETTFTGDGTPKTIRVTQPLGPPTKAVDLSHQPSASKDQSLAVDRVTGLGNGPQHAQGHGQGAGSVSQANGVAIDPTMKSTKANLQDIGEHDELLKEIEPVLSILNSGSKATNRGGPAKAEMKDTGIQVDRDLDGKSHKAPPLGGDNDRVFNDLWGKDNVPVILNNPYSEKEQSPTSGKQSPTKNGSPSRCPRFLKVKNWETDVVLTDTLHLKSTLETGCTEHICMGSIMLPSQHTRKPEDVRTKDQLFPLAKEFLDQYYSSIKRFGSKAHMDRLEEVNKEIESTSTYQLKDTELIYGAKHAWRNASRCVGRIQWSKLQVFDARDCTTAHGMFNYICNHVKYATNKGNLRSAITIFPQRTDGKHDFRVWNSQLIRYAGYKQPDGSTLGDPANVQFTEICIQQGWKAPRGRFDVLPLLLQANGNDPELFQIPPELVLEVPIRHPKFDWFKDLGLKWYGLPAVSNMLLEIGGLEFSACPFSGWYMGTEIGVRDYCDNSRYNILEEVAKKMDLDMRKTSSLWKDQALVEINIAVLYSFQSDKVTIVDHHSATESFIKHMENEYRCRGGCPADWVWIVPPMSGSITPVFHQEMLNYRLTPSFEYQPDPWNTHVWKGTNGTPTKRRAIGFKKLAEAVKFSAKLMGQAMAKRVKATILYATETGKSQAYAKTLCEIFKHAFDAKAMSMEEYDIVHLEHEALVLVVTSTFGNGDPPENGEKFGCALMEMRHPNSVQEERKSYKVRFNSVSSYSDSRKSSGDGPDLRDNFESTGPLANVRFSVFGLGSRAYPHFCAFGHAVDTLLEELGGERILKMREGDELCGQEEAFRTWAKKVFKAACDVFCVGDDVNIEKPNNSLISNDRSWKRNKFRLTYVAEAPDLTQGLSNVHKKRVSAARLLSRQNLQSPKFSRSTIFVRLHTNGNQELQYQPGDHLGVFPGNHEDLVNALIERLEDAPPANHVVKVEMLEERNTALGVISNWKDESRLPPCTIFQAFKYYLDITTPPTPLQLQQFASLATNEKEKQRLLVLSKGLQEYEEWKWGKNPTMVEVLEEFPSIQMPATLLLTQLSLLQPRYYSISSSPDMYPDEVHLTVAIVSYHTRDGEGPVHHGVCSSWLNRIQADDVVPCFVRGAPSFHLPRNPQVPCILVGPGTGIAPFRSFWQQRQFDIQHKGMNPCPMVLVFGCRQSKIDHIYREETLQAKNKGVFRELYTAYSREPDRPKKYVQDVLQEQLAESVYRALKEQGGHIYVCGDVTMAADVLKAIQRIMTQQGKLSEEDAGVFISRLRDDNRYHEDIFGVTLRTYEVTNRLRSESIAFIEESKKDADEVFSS

Nn1nnc2ccccc21
Not Active: IC50 [1] | Ki [1] | IC50 [2] | Ki [2] | IC50 [3] | IC50 [4] | Ki [4] | IC50 (Cytochrome P450 2A6) | Ki (Cytochrome P450 2A6) | IC50 (Adenosine receptor A2a) | IC50 (Nitric oxide synthase 1)

CC[C@]1(O)CC[C@H]2[C@@H]3CCC4=CCCC[C@@H]4[C@H]3CC[C@@]21C
Not Active: IC50 [1] | Ki [1] | IC50 [2] | Ki [2] | IC50 [3] | IC50 [4] | Ki [4] | IC50 (Cytochrome P450 2A6) | Ki (Cytochrome P450 2A6) | IC50 (Adenosine receptor A2a) | IC50 (Nitric oxide synthase 1)

N[C@@H](Cc1ccc(F)cc1)C(=O)O
Not Active: IC50 [1] | Ki [1] | IC50 [2] | Ki [2] | IC50 [3] | IC50 [4] | Ki [4] | IC50 (Adenosine receptor A2a) | IC50 (Nitric oxide synthase 1)

CCOC(=O)[C@H](CCc1ccccc1)N[C@@H](C)C(=O)N1Cc2ccccc2C[C@H]1C(=O)O
Not Active: IC50 [1] | Ki [1] | IC50 [2] | Ki [2] | IC50 [3] | IC50 [4] | Ki [4] | IC50 (Cytochrome P450 2A6) | Ki (Cytochrome P450 2A6) | IC50 (Adenosine receptor A2a) | IC50 (Nitric oxide synthase 1)

O=C(c1ccccc1Cl)N1CCC(Cc2ccccc2)CC1
Not Active: IC50 [1] | Ki [1] | IC50 [2] | Ki [2] | IC50 [3] | IC50 [4] | Ki [4] | IC50 (Cytochrome P450 2A6) | Ki (Cytochrome P450 2A6) | IC50 (Adenosine receptor A2a) | IC50 (Nitric oxide synthase 1)

CCOC(=O)[C@H](CCc1ccccc1)N[C@@H](C)C(=O)N1CCC[C@H]1C(=O)O
Not Active: IC50 [1] | Ki [1] | IC50 [2] | Ki [2] | IC50 [3] | IC50 [4] | Ki [4] | IC50 (Cytochrome P450 2A6) | Ki (Cytochrome P450 2A6) | IC50 (Adenosine receptor A2a) | IC50 (Nitric oxide synthase 1)

Clc1cc2c(cc1Cl)Oc1cc(Cl)c(Cl)cc1O2 [2,3,7,8-TETRACHLORODIBENZO-P-DIOXIN]
Not Active: IC50 [1] | Ki [1] | IC50 [2] | Ki [2] | IC50 [4] | Ki [4] | IC50 (Cytochrome P450 2A6) | Ki (Cytochrome P450 2A6) | IC50 (Adenosine receptor A2a) | IC50 (Nitric oxide synthase 1)

C=C1/C(=C\C=C2/CCC[C@]3(C)[C@@H]([C@H](C)CCCC(C)C)CC[C@@H]23)C[C@@H](O)C[C@@H]1O [ALFACALCIDOL]
Not Active: IC50 [1] | Ki [1] | IC50 [2] | Ki [2] | IC50 [3] | IC50 [4] | Ki [4] | IC50 (Cytochrome P450 2A6) | Ki (Cytochrome P450 2A6) | IC50 (Adenosine receptor A2a) | IC50 (Nitric oxide synthase 1)

CCCCCC[C@H]1C(=O)O[C@H](C)[C@H](NC(=O)c2cccc(NC=O)c2O)C(=O)O[C@@H](C)[C@@H]1OC(=O)CC(C)C [ANTIMYCIN A]
Not Active: IC50 [1] | Ki [1] | IC50 [2] | Ki [2] | IC50 [3] | IC50 [4] | Ki [4] | IC50 (Cytochrome P450 2A6) | Ki (Cytochrome P450 2A6) | IC50 (Adenosine receptor A2a) | IC50 (Nitric oxide synthase 1)

C[C@@H]1CC[C@H]2[C@@H](C)C(=O)O[C@@H]3O[C@@]4(C)CC[C@@H]1[C@]32OO4 [ARTEMISININ]
Not Active: IC50 [1] | Ki [1] | IC50 [2] | Ki [2] | IC50 [3] | IC50 [4] | Ki [4] | IC50 (Adenosine receptor A2a) | IC50 (Nitric oxide synthase 1)

CO[C@H]1[C@@H](O)[C@H](N)[C@@H](O[C@H]2O[C@H]([C@H](C)N)CC[C@H]2N)[C@H](O)[C@@H]1N(C)C(=O)CN [ASTROMICIN]
Not Active: IC50 [1] | Ki [1] | IC50 [2] | Ki [2] | IC50 [3] | IC50 [4] | Ki [4] | IC50 (Cytochrome P450 2A6) | Ki (Cytochrome P450 2A6) | IC50 (Adenosine receptor A2a) | IC50 (Nitric oxide synthase 1)

[N-]=[N+]=CC(=O)OC[C@H](N)C(=O)O [AZASERINE]
Not Active: IC50 [1] | Ki [1] | IC50 [2] | Ki [2] | IC50 [3] | IC50 [4] | Ki [4] | IC50 (Cytochrome P450 2A6) | Ki (Cytochrome P450 2A6) | IC50 (Adenosine receptor A2a) | IC50 (Nitric oxide synthase 1)
